Holding throughout (format): cell-based
The subject of experiment [1] is E. Coli K-12. The experiment can be described thus: E. Coli assay under LED lamps, colony count. The following applies: light. As to the method: Regarding the E. Coli assay tests in the above examples, the following procedure was used: • 1. E. Coli K-12 inoculated in 5 mL TSB and placed in a shaking incubator overnight. • 2. Dilute culture in 500 mL PBS (˜10̂8 CFU/mL) and placed in shaking incubator for 30 minutes at […]. • 3.15 mL samples created using 12 mL culture and a mixture of PBS buffer and sample compounds. • 4. Placed under LED lamps for 2 hours (40 W/m^2). • 5. Samples diluted to 10^−4 and culture controls diluted to 10^−5 for plating through series dilutions. • 6. 0.1 mL plated of each sample in triplicates on TSA base (10^−3 and 10^−4 for samples. 10^−4 and 10^−5 for controls). • 7. Incubated overnight at 37° C. • 8. Colonies counted next morning and recorded.

The test system of experiment [2] is Sclerotinia homoeocarpa. The experiment is described as follows: Radial growth of dollar spot fungus on amended Potato Dextrose Agar, dark vs light. As to conditions: for inhibition at 500 µM / inhibition at 1000 µM / inhibition at 2000 µM: Clarireedia homoeocarpa.
In experiment [3] the test system is Alternaria solani mycelia. The experiment is described as follows: Photodynamic inhibition of Alternaria solani mycelia, percentage of dead samples after 7 days on agar. As to conditions: Table 5. As to the method: In the experiments, Alternaria solani mycelia were grown in liquid medium for 24 hours. Small spheres of the mycelia (average diameter 2 mm) were incubated for 100 minutes with 100 μM of Mg-Chlorophyllin with 0 to 5 mM of Disodium-EDTA. Samples were illuminated with 395 nm (fluence 106.6 J cm^−2) for 120 mins and the radial growth of mycelial patches after 7 days on agar medium was measured. A sample was considered dead, if there was no growth observable after 7 days on agar plates.
In the experiments, Alternaria solani mycelia were grown in liquid medium for 24 hours. Small spheres of the mycelia (average diameter 2 mm) were incubated for 100 minutes with Chlorin E6 with or without 5 mM of disodium-EDTA. Samples were illuminated with 395 nm (fluence 106.6 J cm^−2) for 120 mins and the radial growth of mycelial patches after 7 days on agar medium was measured. A sample was considered dead, if there was no growth observable after 7 days on agar plates.
The protocol for the PDI of A. solani was as follows (for Experiment 2 and 5): • Grow A. solani on tomato-agar for some days. • Transfer parts of the growing mycelium form the edge of the A. solani (no conidia) to liquid tomato medium. • Incubate overnight at 26° C. under constant agitation. • Transfer the grown mycelia (spheres of mycelia, approximately 2 mm in diameter) to 24 well plates. • Add 500 microlitres of the PS to the well (PBS for the Co and light only controls). • Incubate under agitation for 100 minutes. • Illuminate under agitation for 120 minutes. • Transfer the treated mycelia to tomato-agar plates and incubate for one week at room temperature. • Evaluate by counting of dead samples.

Experiment [4] deals with Sclerotinia homoeocarpa. The experiment can be described thus: Radial growth of dollar spot fungus after treatment of plugs in PBS (24 well plates), dark vs light. As to the method:
In this example, control of dollar spot fungus (Sclerotinia homoeocarpa) with chlorins combined with a chelating agent was assessed. Treatments were prepared in Phosphate Buffered Saline (PBS) in 24 well plates (in duplicates for light vs. dark incubation) at desired concentrations. Then, a 5 mm diameter plug of a Sclerotinia homoeocarpa isolate (3 isolates total tested) was inoculated into the PBS and incubated at 21° C. in the dark for 2 hours. After 2 hours, one of the 24 well plates (with isolates in triplicate) is left in the dark and one 24 well plate is placed under illumination for 1 hour (all at 21° C.). Following illumination, fungal plugs are removed from PBS, blotted dry on sterile filter paper and transferred to non-amended Potato Dextrose Agar (PDA). Radial growth of the fungus is monitored daily until the growth of S. homoeocarpa reaches the edge of the Petri-dish. Illumination is provided by LED lights emitting about 1000 μmol/m^2/s photosynthetically active radiation (PAR). In this example, control of dollar spot fungus (Sclerotinia homoeocarpa) with Zinc Protoporphyrin IX (Zn-PPIX) combined with EDTA was assessed. Treatments were prepared in Phosphate Buffered Saline (PBS) in 24 well plates (in duplicates for light vs. dark incubation) at desired concentrations. Then, a 5 mm diameter plug of a Sclerotinia homoeocarpa isolate (3 isolates total tested) was inoculated into the PBS and incubated at 21° C. in the dark for 2 hours. After 2 hours, one of the 24 well plates (with isolates in triplicate) is left in the dark and one 24 well plate is placed under illumination for 1 hour (all at 21° C.). Following illumination, fungal plugs are removed from PBS, blotted dry on sterile filter paper and transferred to non-amended Potato Dextrose Agar (PDA). Radial growth of the fungus is monitored daily until the growth of S. homoeocarpa reaches the edge of the Petri-dish. Illumination is provided by LED lights emitting about 1000 μmol/m^2/s photosynthetically active radiation (PAR). In this example, control of dollar spot fungus (Sclerotinia homoeocarpa) with bacteriochlorin combined with EDTA was assessed. Treatments were prepared in Phosphate Buffered Saline (PBS) in 24 well plates (in duplicates for light vs. dark incubation) at desired concentrations. Then, a 5 mm diameter plug of a Sclerotinia homoeocarpa isolate (3 isolates total tested) was inoculated into the PBS and incubated at 21° C. in the dark for 2 hours. After 2 hours, one of the 24 well plates (with isolates in triplicate) is left in the dark and one 24 well plate is placed under illumination for 1 hour (all at 21° C.). Following illumination, fungal plugs are removed from PBS, blotted dry on sterile filter paper and transferred to non-amended Potato Dextrose Agar (PDA). Radial growth of the fungus is monitored daily until the growth of S. homoeocarpa reaches the edge of the Petri-dish. Illumination is provided by LED lights emitting about 1000 μmol/m^2/s photosynthetically active radiation (PAR). In this example, control of dollar spot fungus (Sclerotinia homoeocarpa) with Aluminum chlorin e6 combined with EDTA was assessed. Treatments were prepared in Phosphate Buffered Saline (PBS) in 24 well plates (in duplicates for light vs. dark incubation) at desired concentrations. Then, a 5 mm diameter plug of a Sclerotinia homoeocarpa isolate (3 isolates total tested) was inoculated into the PBS and incubated at 21° C. in the dark for 2 hours. After 2 hours, one of the 24 well plates (with isolates in triplicate) is left in the dark and one 24 well plate is placed under illumination for 1 hour (all at 21° C.). Following illumination, fungal plugs are removed from PBS, blotted dry on sterile filter paper and transferred to non-amended Potato Dextrose Agar (PDA). Radial growth of the fungus is monitored daily until the growth of S. homoeocarpa reaches the edge of the Petri-dish. Illumination is provided by LED lights emitting about 1000 μmol/m^2/s photosynthetically active radiation (PAR). […]

Experiment [5] has as its system Botrytis cinerea mycelia. The experiment is described as follows: Photodynamic inhibition of Botrytis cinerea mycelia, percentage of dead samples after 7 days on agar. As to conditions: Table 4; EDTA-Ca 5 mM alone; with light. As to the method:
In the experiments, Botrytis cinerea mycelia were grown in liquid medium for 48 hours. Small spheres of the mycelia (average diameter 2 mm) were incubated for 100 minutes with Mg-Chlorophyllin with or without 5 mM Disodium-EDTA. Samples were illuminated with 395 nm (fluence 106.6 J cm^−2) for 120 minutes and the radial growth of mycelial patches after 7 days on agar medium was measured. A sample was considered dead, if there was no growth observable after 7 days on agar plates.
In the experiments, Botrytis cinerea mycelia were grown in liquid medium for 48 hours. Small spheres of the mycelia (average diameter 2 mm) were incubated for 100 minutes with Mg-Chlorophyllin with or without 5 mM EDTA (calcium or disodium). Samples were illuminated with 395 nm (fluence 106.6 J cm^−2) for 120 min and the radial growth of mycelial patches after 7 days on agar medium was measured. A sample was considered dead, if there was no growth observable after 7 days on agar plates.
In the experiments, Botrytis cinerea mycelia were grown in liquid medium for 48 hours. Small spheres of the mycelia (average diameter 2 mm) were incubated for 100 minutes with Mg-Chlorophyllin with or without Baypure DS100 Samples were illuminated with 395 nm (fluence 106.6 J cm^−2) for 120 min and the radial growth of mycelial patches after 7 days on agar medium was measured. A sample was considered dead, if there was no growth observable after 7 days on agar plates.
The protocol for the PDI of B. cinerea was as follows (for experiments 3 and 4 described above): • Grow B. cinerea on malt-peptone-agar for some days. • Transfer spores of B. cinerea to liquid malt-peptone medium. • Incubate for 2-3 days at 26° C. under constant agitation. • Transfer the grown mycelia (spheres of mycelia, approximately 2 mm diameter) to 24 well plates. • Add 500 μl of the PS to the well. • Incubate under agitation for 100 minutes in the dark. • Illuminate under agitation for 120 minutes. • Transfer the treated mycelia to malt-peptone-agar plates and incubate for one week at room temperature. • Evaluate by counting of dead samples.

Where [6] appears, read: Table 13, 1 mM Curcumin in 0.25% Tween 80 solution.
The mark [7] stands for this setting: Table 9A, dark, Ca-EDTA 100 μM, no curcumin.
Where [8] appears, read: Table 9B, light, Ca-EDTA 100 μm, no curcumin.

Where two headings read alike, the source gives them in different places.

Broadly, the inhibition is the drop in the measured response relative to a control, in per cent. For the molecule `O=C(O)CC(NC(CC(=O)O)C(=O)O)C(=O)O` (stereo not shown) [Baypure CX (IDS), tetrasodium iminodisuccinate], the “% Inactivation” value in experiment [1] (Table 11, 5 mM Baypure CX) stood at 67.8%. This molecule yielded a CFU/mL in experiment [1] (Table 11, 5 mM Baypure CX) of 2.09E+06 CFU/mL. The LogCFU/mL in experiment [1] (Table 11, 5 mM Baypure CX) came to 6.32 LogCFU/mL. Also, the inhibition at 500 µM is 6.2% in experiment [2] (Table 14A, dark, rate 500 μM) and 8.6% in experiment [2] (Table 14B, light, rate 500 μM). Moreover, the inhibition at 1000 µM in experiment [2] (Table 14A, dark, rate 1000 μM) is 15.2%; in experiment [2] (Table 14B, light, rate 1000 μM), 18%. Besides, the inhibition at 2000 µM in experiment [2] (Table 14A, dark, rate 2000 μM) amounted to 31.3%; in experiment [2] (Table 14B, light, rate 2000 μM) it was 30.9%. Besides, the “Mean Radial Growth” value in experiment [2] (Table 14A, dark, rate 500 μM) is 12.7 mm; in experiment [2] (Table 14A, dark, rate 1000 μM), 11.4 mm; in experiment [2] (Table 14A, dark, rate 2000 μM) it was 9.3 mm; in experiment [2] (Table 14B, light, rate 500 μM), 11.8 mm; in experiment [2] (Table 14B, light, rate 1000 μM) it was 10.6 mm; in experiment [2] (Table 14B, light, rate 2000 μM), 8.9 mm.
A word on the % Inhibition: it is the change of the read-out against control, counted positive when it falls. In the case of `C=Cc1c(C)c2cc3nc(c(CC(=O)O)c4[nH]c(cc5nc(cc1[nH]2)C(C)=C5CC)c(C)c4C(=O)O)[C@@H](CCC(=O)O)[C@@H]3C` [Chlorin E6], the dead % in experiment [3] (light, 1 μM Chlorin E6) came out at 0.0%; in experiment [3] (light, 10 μM Chlorin E6) it was 8.3%; in experiment [3] (light, 100 μM Chlorin E6), 0%; in experiment [3] (no light, 100 μM Chlorin E6), 0.0%. Further, the “% Inhibition” value is −1.49% in experiment [4] (Table 18A, dark, rate 10 μM); 3.48% in experiment [4] (Table 18A, dark, rate 100 μM); 24.12% in experiment [4] (Table 18B, light, rate 10 μM); 11.06% in experiment [4] (Table 18B, light, rate 100 μM). Further, the “Mean Radial Growth” value in experiment [4] (Table 18A, dark, rate 10 μM) was 11.33 mm; in experiment [4] (Table 18A, dark, rate 100 μM), 10.78 mm; in experiment [4] (Table 18B, light, rate 10 μM), 8.39 mm; in experiment [4] (Table 18B, light, rate 100 μM), 9.83 mm.
On to `COc1cc(/C=C/C(=O)CC(=O)/C=C/c2ccc(O)c(OC)c2)ccc1O` [Curcumin], for which the “% Inactivation” value in experiment [1] (setting [6]) is listed as 86.0%. In experiment [1] (setting [6]), the CFU/mL came to 1.24E+06 CFU/mL. In experiment [1] (setting [6]), this molecule displayed a LogCFU/mL of 6.09 LogCFU/mL. Besides, the inhibition at 500 µM in experiment [2] (Table 9A, dark, Curcumin 500 μM in 0.25% Tween 80, read-out: % Inhibition) is 11.4%; in experiment [2] (Table 9B, light, Curcumin rate 500 μM in 0.25% Tween 80, read-out: % Inhibition), 8.1%. The inhibition at 1000 µM was determined as 33% in experiment [2] (Table 9A, dark, Curcumin 1000 μM in 0.25% Tween 80, read-out: % Inhibition) and 28.9% in experiment [2] (Table 9B, light, Curcumin rate 1000 μM in 0.25% Tween 80, read-out: % Inhibition). The “Mean Radial Growth” value in experiment [2] (Table 9A, dark, Curcumin 500 μM in 0.25% Tween 80) is given as 13.1 mm; in experiment [2] (Table 9A, dark, Curcumin 1000 μM in 0.25% Tween 80), 9.9 mm; in experiment [2] (Table 9B, light, Curcumin rate 500 μM in 0.25% Tween 80), 12.4 mm; in experiment [2] (Table 9B, light, Curcumin rate 1000 μM in 0.25% Tween 80), 9.6 mm.
As for `O=C([O-])CN(CCN(CC(=O)[O-])CC(=O)[O-])CC(=O)[O-].[Ca+2].[Na+].[Na+]` [EDTA-Ca, calcium disodium EDTA], in experiment [2] (setting [7]), the “% Inhibition” value worked out at 80.8% and the “Mean Radial Growth” value is 2.8 mm. Moreover, in experiment [2] (setting [8]), the “% Inhibition” value is 76.5% and the “Mean Radial Growth” value is 3.2 mm. Moreover, in experiment [5], the dead % came out at 0%.

These data come from patent publication US20200253211A1, “PHOTODYNAMIC INHIBITION OF MICROBIAL PATHOGENS IN PLANTS” (SUNCOR ENERGY INC, priority 2017, published 2020).
